Like-named read-outs stand apart in the source and are kept apart here.
Key:
Immune cells (THP-1) = assay type: cell-based, Human
Lung cells (A549) = assay type: cell-based, Human

## CCN(CCO)CCCC(C)Nc1ccnc2cc(Cl)ccc12 (centres unmarked) [Hydroxychloroquine sulphate]
Immune cells (THP-1); 0.1 µM
  Inhibition of IL-6: 90.7%
  Inhibition of IL-8: 23.2%
Immune cells (THP-1); 1 µM
  Inhibition of IL-6: 83.9%
  Inhibition of IL-8: 36.8%
Immune cells (THP-1); 5 µM
  Inhibition of IL-6: 94.2%
  Inhibition of IL-8: 53.4%
Immune cells (THP-1); 10 µM
  Inhibition of IL-6: 84.5%
  Inhibition of IL-8: 53.5%
Immune cells (THP-1); 20 µM
  Inhibition of IL-6: 100.0%
  Inhibition of IL-8: 36.1%
Lung cells (A549); 0.1 µM
  Inhibition of IL-6: 34.7%
  Inhibition of IL-8: 54.4%
Lung cells (A549); 1 µM
  Inhibition of IL-6: 53.4%
  Inhibition of IL-8: 40.8%
Lung cells (A549); 5 µM
  Inhibition of IL-6: 66.5%
  Inhibition of IL-8: 56.7%
Lung cells (A549); 10 µM
  Inhibition of IL-6: 60.7%
  Inhibition of IL-8: 44.0%
Lung cells (A549); 20 µM
  Inhibition of IL-6: 71.4%
  Inhibition of IL-8: 65.0%

Reference: patent US20250041380A1, “R[…] FOR SARS-COV2 DISEASE” (priority 2021, published 2025)
